This note sets out measurements from article PMC6592262, “Isolation and functional characterization of two dioxygenases putatively involved in bixin biosynthesis in annatto (Bixa orellana L.)” (PeerJ, 2019).

This assay addresses T1, BoCCD4-3 (Bixa orellana, UniProt A0A140CWS5).
T1 construct: gene CCD4-3; complete ORF (1,785 bp amplicon, predicted 30-residue transit peptide kept) in pDEST17, arabinose-induced in lycopene-accumulating E. coli BL21 (pACCRTEIB); cells or crude cell-free extract, not purified
Briefly: cleavage in lycopene-accumulating E. coli and in cell-free extract; HPLC, UHPLC-ESI-QTOF-MS/MS, FTIR. It is filed as biochemical. As to conditions: 1 mM lycopene added 1:1 to extract, 22 °C, up to 5 min; product bixin aldehyde (m/z 349.2), 5,6/5',6' cleavage; crude extract.

T1 sequence (A0A140CWS5 entry or part of it): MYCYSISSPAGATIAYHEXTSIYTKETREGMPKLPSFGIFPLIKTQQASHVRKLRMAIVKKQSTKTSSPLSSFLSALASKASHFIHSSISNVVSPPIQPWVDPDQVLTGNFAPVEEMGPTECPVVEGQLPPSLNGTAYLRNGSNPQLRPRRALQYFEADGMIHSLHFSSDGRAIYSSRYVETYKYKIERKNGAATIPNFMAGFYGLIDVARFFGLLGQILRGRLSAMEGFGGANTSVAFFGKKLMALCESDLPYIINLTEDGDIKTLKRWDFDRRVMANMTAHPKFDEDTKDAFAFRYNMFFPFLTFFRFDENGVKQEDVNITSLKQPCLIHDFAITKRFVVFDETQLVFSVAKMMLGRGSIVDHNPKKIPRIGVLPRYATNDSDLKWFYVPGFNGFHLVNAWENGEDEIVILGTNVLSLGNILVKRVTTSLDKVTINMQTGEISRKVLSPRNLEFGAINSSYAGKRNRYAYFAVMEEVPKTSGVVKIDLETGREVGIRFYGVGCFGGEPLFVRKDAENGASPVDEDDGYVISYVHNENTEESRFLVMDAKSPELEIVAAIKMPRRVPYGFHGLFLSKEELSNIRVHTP

Consider `CC(C)=CCC/C(C)=C/C=C/C(C)=C/C=C/C(C)=C/C=C/C=C(C)/C=C/C=C(C)/C=C/C=C(\C)CCC=C(C)C` [lycopene], for which the “cleavage in lycopene-accumulating E. coli and in cell-free extract; HPLC, UHPLC-” value is given as “BoCCD4-3 is also able to cleave lycopene into bixin aldehyde, but at lower efficiency”.
